Read-outs that look alike come from different tables or passages of the source.
Tests used:
tibialis muscle = experiment: Neuromuscular block in anesthetized cats (electrically stimulated peroneal nerve, tibialis muscle contractions); assay type: in vivo; settings: for Activity period: i.v., time between first appearance of the effect and restoration of normal muscle contractions; for ED50: i.v. dose reducing the contractions to half of their original values, 4 doses
Procedure: The potency and the activity period of the compounds according to the invention were tested on anesthesized cats and alert dogs. On anesthesized cats the peroneal nerve was electrically stimulated and the corresponding contractions of the tibialis muscle was registrated. The i.v. doses of the various test compounds which reduced the contractions to half of their original values were determined (ED50 -values). In the attached Table I the ED50 -values and the corresponding activity periods are shown, the term "activity period" is intended to mean the time interval between the first appearance of the effect of the test compounds and the restoration of the normal muscle contractions. For each test compound 4 doses were used and for each dose 6 animals were examined. As a reference compound suxamethonium was used, which is a known compound widely used as a neuromuscular blocking agent having a short activity period.

muscle relaxation = experiment: Total muscle relaxation in alert dogs; assay type: in vivo; settings: for Activity period: time between administration and disappearance of the activity; for Time until the max. effect: time between administration and total muscle relaxation
Procedure: To alert dogs (6 animals for each test compound) four doses causing a total muscle relaxation were administered and the time between the administration and the total muscle relaxation as well as the time between the administration and the disappearance of the activity was measured.

[1] = Dose 100 (unit not printed), listed as 3 β-Pyrrolidino-17a-methyl-17a-aza-D-homo-5 α-androstane-di-methobromide
[2] = Dose 100 (unit not printed), listed as 3 β-Pyrrolidino-17a-methyl-17a-aza-D-homo-5α -androstane-di-methoiodide

Structure (SMILES) | Activity period (tibialis muscle) [min] | Activity period (muscle relaxation; Dose 100 (unit not given)) [min] | Time until the max. effect (muscle relaxation; Dose 100 (unit not given)) [s] | further results
C[C@]12CC[C@@H]([N+]3(C)CCCC3)C[C@@H]1CC[C@@H]1[C@@H]2CC[C@@]2(C)[C@H]1CCC[N+]2(C)C [3 α-Pyrrolidino-17a-methyl-17a-aza-D-homo-5α-androstane-di-m] [3α-Pyrrolidino-17a-methyl-17a-aza-D-homo-5α-androstane dimethobromide] | 11.2 | 8.6 | 18 | 
C[C@]12CC[C@@H]([N+]3(C)CCCC3)C[C@@H]1CC[C@@H]1[C@@H]2CC[C@@]2(C)[C@H]1CCC[N+]2(C)C [3 αPyrrolidino-17a-methyl-17a-aza-D-homo-5α-androstane-di-me] [3α-Pyrrolidino-17a-methyl-17a-aza-D-homo-5α-androstane dimethoiodide] | 12.4 | 8.5 | 19 | ED50 (tibialis muscle): 0.12 mg/kg
C[C@]12CC[C@H]([N+]3(C)CCCC3)C[C@@H]1CC[C@@H]1[C@@H]2CC[C@@]2(C)[C@H]1CCC[N+]2(C)C [3 β-Pyrrolidino-17a-methyl-17a-aza-D-homo-5α-androstane-di-m] [3β-Pyrrolidino-17a-methyl-17a-aza-D-homo-5α-androstane dimethobromide] | 13.0 |  |  | Activity period (muscle relaxation; [1]): 9.5 min; Time until the max. effect (muscle relaxation; [1]): 21 s
C[C@]12CC[C@H]([N+]3(C)CCCC3)C[C@@H]1CC[C@@H]1[C@@H]2CC[C@@]2(C)[C@H]1CCC[N+]2(C)C [3 β-Pyrrolidino-17a-methyl-17a-aza-D-homo-5α-androstane-di-m] [3β-Pyrrolidino-17a-methyl-17a-aza-D-homo-5α-androstane dimethoiodide] | 12.6 |  |  | ED50 (tibialis muscle): 0.105 mg/kg; Activity period (muscle relaxation; [2]): 8.8 min; Time until the max. effect (muscle relaxation; [2]): 17 s
C[C@]12CC[C@@H]([N+]3(C)CCCC3)C[C@@H]1CC[C@@H]1[C@@H]2CC[C@@]2(C)[C@H]1CCC[N+]2(C)C [3α-Pyrrolidino-17a-methyl-17a-aza-D-homo-5α-androstane dimethobromide] |  |  |  | ED50 (tibialis muscle; Felis catus, iv): 0.1 mg/kg
C[C@]12CC[C@H]([N+]3(C)CCCC3)C[C@@H]1CC[C@@H]1[C@@H]2CC[C@@]2(C)[C@H]1CCC[N+]2(C)C [3β-Pyrrolidino-17a-methyl-17a-aza-D-homo-5α-androstane dimethobromide] |  |  |  | ED50 (tibialis muscle; Felis catus, iv): 0.125 mg/kg
C[N+](C)(C)CCOC(=O)CCC(=O)OCC[N+](C)(C)C [Suxamethonium, reference compound] | 11.0 | 10.3 | 16 | ED50 (tibialis muscle; Felis catus, iv, read-out: ED50): 0.06 mg/kg
